Ends that are not written are not given here.
Key:
4T1 murine TNBC cells = assay: Real-time cell viability assay (xCELLigence RTCA); type: cell-based; details: serum-free media, dose-dependent, representative of N = 3
Protocol: Three thousand cells were seeded in the wells of an xCELLigence RTCA E-plate 16 (Agilent, Santa Clara, CA). After the cells adhered to the plate, the media was replaced with serum-free media, and the cells were treated with CKS1 at the indicated concentrations. The viability of the cells was monitored using the xCELLigence RTCA analyzer (Agilent).

caspase-3 or caspase-7 = assay: CellEvent Caspase-3/7 live cell imaging; type: cell-based, murine; details: 4T1 cells, 100 µM
Protocol: Fluorescence labeling of cells was performed by seeding 5.0 × 10^4 4T1 cells in a 35 mm dish on a collagen-coated No. 1.5 coverslip with a 14 mm glass diameter (MatTek, Ashland, MA). After overnight incubation, the cells were washed once with serum-free media and replaced with fresh serum-free media. For cell cytosol labeling, Calcein-AM (Thermo Fisher Scientific, C1430) was added at a final concentration of 5 µg/mL and incubated for 10 min. For mitochondrial membrane labeling, JC-1 (Thermo Fisher Scientific, T3168) was added at a final concentration of 10 µg/mL and incubated for 10 min. To monitor the activity of caspases, CellEvent Caspase-3/7 Red detection reagents (Thermo Fisher Scientific, C10423) were used following the manufacturer’s instructions. For nuclear staining, Hoechst 33342 (Cell Signaling Technology, #4082) was added at a final concentration of 5 µg/mL and incubated for 10 min.
Cells were imaged on either a Zeiss LSM 700 or a 3i spinning disk confocal microscope. Samples were imaged with optimized microscope settings. […]
Image processing was performed using Fiji software. […] For quantification, CellProfiler was used. After cell segmentation based on the nucleus, the intensity of the signal of interest was quantified for each cell. Based on the intensity, each cells were labeled as positive or negative and the fraction of positive cells was calculated.

4T1 cells [1] = assay: Transmission electron microscopy of treated cells; type: cell-based, murine; details: 100 µM
Protocol: Samples were fixed in 2.5% glutaraldehyde, 3 mM MgCl2 in 0.1 M sodium cacodylate buffer, pH 7.2 overnight at 4 °C. After buffer rinse, samples were postfixed in 2% osmium tetroxide in 0.1 M sodium cacodylate for at least 1 h (no more than two) on ice in the dark. After osmium, samples were rinsed in 0.1 M Maleate buffer (pH 6.2), followed by uranyl acetate in 0.1 M Maleate (0.22 µm filtered, 1 h, dark), dehydrated in a graded series of ethanol and embedded in Epon (PolySci) resin. Samples were polymerized at 60 °C overnight. Thin sections, 60–90 nm, were cut with a diamond knife on a Leica UCT ultramicrotome and picked up with 2 × 1 mm Formvar copper slot grids. Grids were stained with 2% uranyl acetate (aq.) followed by lead citrate and observed with a Hitachi 7600 TEM at 80 kV. Images were captured with an AMT CCD XR80 (8-megapixel camera—side mount AMT XR80—high-resolution high-speed camera).

CT26 cells = assay: Quantification of ATP release; type: cell-based, murine; details: 20 µM or 100 µM, 30 min, N = 3
Protocol: (§1) Two-lakh cells of 4T1 cells or CT26 cells in growth media were seeded in wells of a 96-well plate. After 12 h, the media was replaced with serum-free media, and the cells were treated with the corresponding concentration of CKS1. […] After filtering the supernatant with a 0.2 µm pore filter (Corning, 431229), the amount of ATP in the supernatant was quantified using the ENLITEN ATP assay system (Promega Corporation, Madison, WI, FF2000). We followed the instructions from the manufacturer when using the ENLITEN ATP assay system.

4T1 cells [2] = assay: Quantification of ATP release; type: cell-based, murine; details: 20 µM or 100 µM, 30 min, N = 3
Protocol: as §1

[3] = tested on: DC2.4 murine dendritic cells; assay: Immunogenicity experiment: cytokine expression in dendritic cells (qPCR); type: cell-based; details: DC2.4 cells, 2 h with conditioned media from 4T1 cells treated with 100 µM CKS1; N = 4
Protocol: Two-lakh cells of 4T1 cells were seeded in wells of a 6-well plate. After overnight incubation, the media was replaced with 500 µL of fresh media, and 4T1 cells were treated with either 100 µM CKS1 or water for 2 h. In a separate well, 500 µL of fresh media was added and 100 µM CKS1 was incubated for 2 h. After the 2 h of incubation, all the supernatant was collected, filtered with 0.22 µm syringe filter, and was stored at −80 °C. Five lakh cells of DC2.4 cells were seeded in wells of a 24-well plate. After overnight incubation, the media was replaced with fresh media, supernatant from 4T1 cells treated with water, supernatant from 4T1 cells treated with 100 µM CKS1, or media containing 100 µM CKS1. DC2.4 cells were incubated for 2 h before RNA extraction.
RNA extraction was conducted using QIAwave RNA Mini Kit (Qiagen, Germany, 74535) following the manufacturer’s instructions. […]
Real-time qPCR was conducted using PowerUp SYBR Green Master Mix for qPCR (Thermo Fisher Scientific, A25741) following the manufacturer’s instructions. […] The relative quantity of TNF, IL-6, and IL-12b was normalized to the relative quantity of GAPDH. Finally, the expression level of the cytokines was normalized to the control sample and the fold change was calculated.

NGRKACLNPASPIVKKIIEKMLNS-NH2 [CKS1, Chemokinostatin-1]
time to cell death (reduction in cell index) after treatment (4T1 murine TNBC cells): ≤ 1 h
fraction of cells with activated caspases (caspase-3 or caspase-7): increased over time
cell membrane integrity by electron microscopy (4T1 cells [1]; 30 min): ruptured after 30 min
cell morphology by electron microscopy (4T1 cells [1]; 6 h): apoptotic morphology
release of ATP in the culture media (CT26 cells): significant release of ATP
release of ATP in the culture media (4T1 cells [2]): significant release of ATP
expression level of TNF, IL-6, IL-12b [3]: significantly increased the expression level of the cytokines

Source: publication PMC10987543 (Cell Death Discovery, 2024)
